In ChEMBL document CHEMBL4138141, “Rapid generation of a novel DPP-4 inhibitor with long-acting properties: SAR study and PK/PD evaluation” (Eur J Med Chem, 2017):

Experiments:
[1] = Half life in human liver microsomes at […] by LC-MS/MS analysis; format: ADME, microsome
[2] = Half life in rat liver microsomes at […] by LC-MS/MS analysis; format: ADME, microsome
[3] = Half life in Sprague-Dawley rat at 25 mg/kg, po administered as single dose by LC-MS/MS analysis; format: ADME, organism-based; settings: in vivo
[4] = test system: Rattus norvegicus; assay: Clearance in Sprague-Dawley rat at 25 mg/kg, po or 5 mg/kg, iv administered as single dose by LC-MS/MS analysis; format: ADME, organism-based; settings: in vivo
[5] = Tmax in Sprague-Dawley rat at 25 mg/kg, po or 5 mg/kg, iv administered as single dose by LC-MS/MS analysis; format: ADME, organism-based; settings: in vivo
[6] = Apparent volume of distribution during terminal phase in Sprague-Dawley rat at 25 mg/kg, po or 5 mg/kg, iv administered as single dose by LC-MS/MS analysis; format: ADME, organism-based; settings: in vivo, read-out: Vz/F
[7] = test system: Rattus norvegicus; assay: AUC (0 to t) in Sprague-Dawley rat at 25 mg/kg, po administered as single dose by LC-MS/MS analysis; format: ADME, organism-based; settings: in vivo
[8] = test system: Rattus norvegicus; assay: Oral bioavailability in Sprague-Dawley rat at 25 mg/kg administered as single dose by LC-MS/MS analysis; format: ADME, organism-based; settings: in vivo
[9] = Metabolic stability in monkey liver microsomes assessed as parent compound remaining at […] incubated for 5 mins measured up to 60 mins by LC-MS/MS analysis; format: ADME, Macaca mulatta, microsome; settings: rhesus monkey, read-out: Stability
[10] = Metabolic stability in human liver microsomes assessed as parent compound remaining at […] incubated for 5 mins measured up to 60 mins by LC-MS/MS analysis; format: ADME, microsome; settings: read-out: Stability
[11] = Metabolic stability in mouse liver microsomes assessed as parent compound remaining at […] incubated for 5 mins measured up to 60 mins by LC-MS/MS analysis; format: ADME, microsome; settings: read-out: Stability
[12] = Metabolic stability in dog liver microsomes assessed as parent compound remaining at […] incubated for 5 mins measured up to 60 mins by LC-MS/MS analysis; format: ADME, Canis lupus familiaris, microsome; settings: read-out: Stability
[13] = Metabolic stability in rat liver microsomes assessed as parent compound remaining at […] incubated for 5 mins measured up to 60 mins by LC-MS/MS analysis; format: ADME, microsome; settings: read-out: Stability

Q: With CS(=O)(=O)c1cccc(-c2c[nH]c3c(=O)n(Cc4cc(F)ccc4C#N)c(N4CCC[C@@H](N)C4)nc23)c1 as the molecule, how does the half-life [1] read?
A: > 3.33 h

Q: And the half-life [2]?
A: 1.65 h

Q: Which half-life [1] does the source give for CS(=O)(=O)c1ccc(-c2c[nH]c3c(=O)n(Cc4cc(F)ccc4C#N)c(N4CCC[C@@H](N)C4)nc23)cc1F here?
A: > 3.33 h

Q: What about the half-life [2] of the same molecule?
A: 2.78 h

Q: What does the source list for N#Cc1ccc(F)cc1Cn1c(N2CCC[C@@H](N)C2)nc2c(-c3ccsc3)c[nH]c2c1=O?
A: half-life [3]: 7.89 h; CL [4]: 147 mL/min/kg; Tmax [5]: 2.33 h; half-life [1]: 2.67 h; half-life [2]: 0.783 h; Vd/F [6]: 104 L/kg; AUCt [7]: 2920 ng·h/mL; F [8]: 33.4%

Q: With N#Cc1ccc(F)cc1Cn1c(N2CCC[C@@H](N)C2)nc2cc[nH]c2c1=O as the molecule, how does the half-life [3] read?
A: 5.46 h

Q: What about the CL [4] of the same molecule?
A: 222 mL/min/kg

Q: And the Tmax [5]?
A: 0.14 h

Q: What about the half-life [1] of the same molecule?
A: 3.33 h

Q: And the half-life [2]?
A: > 1 h

Q: What about the Vd/F [6] of the same molecule?
A: 106 L/kg

Q: What about the AUCt [7] of the same molecule?
A: 1880 ng·h/mL

Q: And the F [8]?
A: 10.6%

Q: Which half-life [1] does the source give for CS(=O)(=O)c1ccc(-c2c[nH]c3c(=O)n(Cc4cc(F)ccc4C#N)c(N4CCC[C@@H](N)C4)nc23)cc1 here?
A: > 3.33 h

Q: And the half-life [2]?
A: > 3.33 h

Q: With N#Cc1ccc(F)cc1Cn1c(N2CCC[C@@H](N)C2)nc2c(-c3ccc(S(N)(=O)=O)cc3)c[nH]c2c1=O as the molecule, how does the half-life [1] read?
A: > 3.33 h

Q: And the half-life [2]?
A: > 3.33 h

Q: Which results are given for N#Cc1ccc(F)cc1Cn1c(N2CCC[C@@H](N)C2)nc2c(Br)c[nH]c2c1=O?
A: half-life [1]: 2.21 h; half-life [2]: 0.625 h

Q: What does the source list for CS(=O)(=O)c1ccccc1-c1c[nH]c2c(=O)n(Cc3cc(F)ccc3C#N)c(N3CCC[C@@H](N)C3)nc12?
A: half-life [1]: > 3.33 h; half-life [2]: 3.28 h

Q: Which half-life [1] does the source give for N#Cc1ccc(F)cc1Cn1c(N2CCC[C@@H](N)C2)nc2c(-c3ccc(F)cc3)c[nH]c2c1=O here?
A: 3.01 h

Q: What about the half-life [2] of the same molecule?
A: 1.2 h

Q: Which half-life [1] does the source give for CC(C)S(=O)(=O)c1ccc(-c2c[nH]c3c(=O)n(Cc4cc(F)ccc4C#N)c(N4CCC[C@@H](N)C4)nc23)cc1 here?
A: 0.722 h

Q: And the half-life [2]?
A: > 3.33 h

Q: What does the source list for N#Cc1ccc(F)cc1Cn1c(N2CCC[C@@H](N)C2)nc2c(F)c[nH]c2c1=O?
A: half-life [1]: 1.64 h; half-life [2]: 0.838 h

Q: Which results are given for N#Cc1ccc(F)cc1Cn1c(N2CCC[C@@H](N)C2)nc2c(-c3cccs3)c[nH]c2c1=O?
A: half-life [1]: 0.585 h; half-life [2]: 0.609 h

Q: What does the source list for Cn1c(=O)cc(N2CCC[C@@H](N)C2)n(Cc2cc(F)ccc2C#N)c1=O [TRELAGLIPTIN]?
A: half-life [3]: 5.13 h; CL [4]: 128 mL/min/kg; Tmax [5]: 0.7 h; remaining at 60 min [9]: > 80%; half-life [1]: > 3.33 h; remaining at 60 min [10]: > 80%; half-life [2]: > 3.33 h; Vd/F [6]: 48.2 L/kg; AUCt [7]: 6820 ng·h/mL; remaining at 60 min [11]: > 80%; F [8]: 46.9%; remaining at 60 min [12]: > 80%; remaining at 60 min [13]: > 80%

Q: What does the source list for CS(=O)(=O)c1ccc(-c2c[nH]c3c(=O)n(Cc4cc(F)ccc4C#N)c(N4CCC[C@@H](N)C4)nc23)c(F)c1?
A: half-life [1]: > 3.33 h; half-life [2]: 1.59 h
